The subject of assay [1] is WT_5.1 (Oligo 5.1) (DNA, G4) TAGAGGACAGCGGGGAAGGCGGGCGGTGGGGCAGGGGGCCTGAAGCGGCGGTACCGGTGCTGGCGGCGGCAGCTGAGGCC
Kind of assay: fluorescence enhancement. The following applies: 1 μM DNA, 2 μM TO.

Assay [2] concerns WT_14.1 (Oligo 14.1) (DNA, G4) AAAGGGAAGTATGGCTGGTGTACCGGGAGCAAGGGAGAGGGAAGGAGGGGCCAAATTAATAGGCCCACGGT
In words: fluorescence enhancement. As to conditions: 1 μM DNA, 2 μM TO.

The test system of assay [3] is WT_14.2 (Oligo 14.2) (DNA, G4) ATAGAGAGTGATGGGGAGGGGGTGAGTGGAGGGTCAAGGAAGGCCCTCCCTGAGGTGGTGTTATTTGACGGGGGTCCACA
Kind of assay: fluorescence enhancement. As to conditions: 1 μM DNA, 2 μM TO.

Assay [4] deals with WT_40.1 (Oligo 40.1) (DNA, G4) GGGGGCGGGGGCGGGGGTGGGGGGAAGAAAAATTCCTAGCTGTAGCTGACTGCA
In words: fluorescence enhancement. The following applies: 10 mM Tris-Cl pH 7.5, 25 °C, 1 μM DNA, 2 μM TO.

Assay [5] deals with Template_5.2 with 5.2 primer (DNA, G4) CCGCGCGGTGAGTCTAGGGCCTGGCACGACCCCTCTAGGGCGGCGTAATGTCCAGACCCA/CGTGGGTCTGGACAT
In words: polymerase stop (primer extension). As to conditions: KCl, 1 mM MgCl2; 40 mM Tris-HCl pH 8.0, 40 °C; ligand 0-20 μM; truncated products.

Assay [6] deals with Template_8.1 with 8.1 primer (DNA, G4) CTGCCTGACAAGGGCTAGGGGGAGATCTGTGTTGGGTGACCAGGGCCATAAGTAAATTTCATCATACT/AGTATGATGAAATTTACTTATGG
In words: polymerase stop (primer extension). The following applies: KCl, 1 mM MgCl2; 40 mM Tris-HCl pH 8.0, 40 °C; ligand 0-20 μM; truncated products.

Assay [7] deals with WT_5.1 (Oligo 5.1) (DNA, G4) TAGAGGACAGCGGGGAAGGCGGGCGGTGGGGCAGGGGGCCTGAAGCGGCGGTACCGGTGCTGGCGGCGGCAGCTGAGGCC
Kind of assay: fluorescent intercalator displacement (G4-FID). The following applies: TO displaced; ligand 0-2.5 μM.

Assay [8] concerns WT_5.2 (Oligo 5.2) (DNA, G4) CCGCGCGGTGAGTCTAGGGCCTGGCACGACCCCTCTAGGGCGGCGTAATGTCCAGACCCA
In words: fluorescent intercalator displacement (G4-FID). As to conditions: TO displaced; ligand 0-2.5 μM.

Assay [9] relates to WT_5.3 (Oligo 5.3) (DNA, G4) CGGCCAGCCTGCCCGTGGGGGGGCCAGGGGAAGCCGCCCGTCTGGGACGTGGGGTCCCCA
Kind of assay: fluorescent intercalator displacement (G4-FID). The following applies: TO displaced; ligand 0-2.5 μM.

The test system of assay [10] is WT_8.1 (Oligo 8.1) (DNA, G4) CTGCCTGACAAGGGCTAGGGGGAGATCTGTGTTGGGTGACCAGGGCCATA
In words: fluorescent intercalator displacement (G4-FID). As to conditions: TO displaced; ligand 0-2.5 μM.

Assay [11] has as its system WT_14.1 (Oligo 14.1) (DNA, G4) AAAGGGAAGTATGGCTGGTGTACCGGGAGCAAGGGAGAGGGAAGGAGGGGCCAAATTAATAGGCCCACGGT
In words: fluorescent intercalator displacement (G4-FID). As to conditions: TO displaced; ligand 0-2.5 μM.

In assay [12] the test system is WT_14.2 (Oligo 14.2) (DNA, G4) ATAGAGAGTGATGGGGAGGGGGTGAGTGGAGGGTCAAGGAAGGCCCTCCCTGAGGTGGTGTTATTTGACGGGGGTCCACA
Kind of assay: fluorescent intercalator displacement (G4-FID). As to conditions: TO displaced; ligand 0-2.5 μM.

Assay [13] relates to WT_5.1R (RNA, G4) GCGAAAGGGGAAGGCGGGCGGUGGGGCAGGGGGCCUGAAGCGGCCUAGCUGUAGCUGACUGCA
Kind of assay: fluorescence enhancement. The following applies: no added monovalent cation; 10 mM Tris-Cl pH 7.5, 0.01 mM EDTA, 25 °C; 2 μM RNA, 2 μM ThT; ~160-fold enhancement.

For the compound `CN1C(=Cc2cc[n+](C)c3ccccc23)Sc2ccccc21`, the binding result is listed as “yes” in [1]; “yes” in [2]; “yes” in [3]; “yes” in [4] (100 mM KCl, enhancement lower than without K+); “yes” in assay [4] (no added monovalent cation, ~330-fold enhancement).

As to `C[n+]1ccc(-c2c3nc(c(-c4cc[n+](C)cc4)c4ccc([nH]4)c(-c4cc[n+](C)cc4)c4nc(c(-c5cc[n+](C)cc5)c5ccc2[nH]5)C=C4)C=C3)cc1`, the binding result in assay [5] and in assay [6] was “yes” each time. Also, the DC50 stood at 880 nM in assay [7]; 1039 nM in assay [8]; 956.3 nM in assay [9]; 479.1 nM in [10]; 897.7 nM in assay [11]; 629.6 nM in assay [12].

Take `Cc1ccc2c(c1)sc(-c1ccc(N(C)C)cc1)[n+]2C`: in [13], the binding entry is “yes”.

Source of the values: article PMC10827794 (2024).
